Reference: patent US5718923A, “Melt granulated sucralfate preparations and a process for their production” (Chugai Seiyaku Kabushiki Kaisha, priority 1994, dated 1998)

What was measured:
Type in all cases: physicochemical
[1] = dispersed particle size (size of particles as dispersed in water), laser diffraction particle size analyzer
Method: Each of the samples thus prepared was measured for the dispersed particle size (i.e., the size of particles as dispersed in water) by means of a laser diffraction particle size analyzer (Nikkiso Co., Ltd.); in addition, the samples were analyzed for average size (at 50% cumulative frequency) and the proportion of particles not larger than 50 μm. […]

[2] = specific surface area measurement, nitrogen gas as adsorbate; settings: Table 2
Method: Each of the samples thus prepared was measured for the dispersed particle size by means of a laser diffraction particle size analyzer; in addition, a specific surface area measurement was conducted before and after the granulation by means of a specific surface area measuring instrument (Shimadzu Corp.) using nitrogen gas as adsorbate.

[3] = particle size of the comminuted powder (hammer mill); settings: comminuted with a hammer mill at about 3,000-3,600 rpm
Method: A dry powder sucralfate (as specified in Pharmacopoeia of Japan, JP) was comminuted with a hammer mill at about 3,000-3,600 rpm.

[4] = Table 2, sucralfate:polyethylene glycol mixing proportions
[5] = Table 2, sucralfate:polyethylene glycol mixing proportions, melt granulated at 300 rpm to 65° C.

| Dispersed particle size, Percent 50 μm and less [1, 4] [%] | Dispersed particle size, Average [1, 5] [μm] | Specific surface area [2] [m^2 /g] | Dispersed particle size, Average ([1]; Table 1, average size at 50% cumulative frequency, dispersed in water) [μm] | Dispersed particle size, Percent 50 μm and less ([1]; Table 1, dispersed in water) [%] | Substance | particle size of comminuted powder, in words [3] |
| --- | --- | --- | --- | --- | --- | --- |
| 86.2 | 18.6 | 1.6 |  |  | sucralfate [Sucralfate of JP] |  |
| 100.0 | 4.4 | 5.1 | 4.4 | 100.0 | sucralfate [Comminuted sucralfate powder] | entirely composed of particles not larger than 50 μm |
